The results in this text go back to ChEMBL document CHEMBL1124940, “N-[(arylmethoxy)phenyl] carboxylic acids, hydroxamic acids, tetrazoles, and sulfonyl carboxamides. Potent orally active leukotriene D4 antagonists of novel structure” (J Med Chem, 1990).

A value given as a limit tells only on which side of the number the result lay.

The term inhibition in vivo denotes the change of the read-out against control, counted positive when it falls. By pKb is commonly meant −log10 of the Kb, conventionally taken in molar units. Lower therefore signals a high Kb. One may read the ED50 as the midpoint of the dose-response relation. Low values mean greater potency, high ones weaker potency.

Data set [1] deals with Cavia porcellus. The data set is described as follows: Inhibition of ovalbumin induced bronchoconstriction in Guinea pig, compound injected intragastrically, dose is 10 mg/kg. It counts as functional. The note with it: po, route intragastric.
Data set [2] has as its system Cavia porcellus. The data set is described as follows: Inhibition of LTD4-induced broncho constriction in Guinea pig after intraduodenal administration of a dose of 3 mg/kg. The class given is functional.
For data set [3], the system named is Cavia porcellus. The data set is described as follows: Inhibition of LTD4-induced bronchoconstriction in Guinea pig after intragastrical administration of dose of 25 mg/kg. The class given is functional. The settings on record: po, route intragastric.
Data set [4] deals with Cavia porcellus. The data set is described as follows: Inhibition of LTD4-induced broncho constriction in Guinea pig, compound injected intraduodenally at a dose of 25 mg/kg. The settings on record: route intraduodenal. The class given is functional.
In data set [5] the test system is Cavia porcellus. The data set is described as follows: Inhibition of ovalbumin induced bronchoconstriction in Guinea pig, compound injected intraduodenally at a dose of 10 mg/kg. It counts as functional. The settings on record: route intraduodenal.
Data set [6] concerns Cavia porcellus. The data set is described as follows: Inhibition of ovalbumin induced bronchoconstriction in Guinea pig, compound injected intraduodenally at a dose of 25 mg/kg. The settings on record: route intraduodenal. It counts as functional.
For data set [7], the system named is Cavia porcellus. The data set is described as follows: Inhibition of ovalbumin induced bronchoconstriction in Guinea pig, compound injected intragastrically, dose is 25 mg/kg. The class given is functional. The settings on record: po, route intragastric.
Data set [8] relates to Cavia porcellus. The data set is described as follows: Inhibition of LTD4-induced bronchoconstriction in Guinea pig after intragastrical administration of dose of 3 mg/kg. The class given is functional. The note with it: po, route intragastric.
The subject of data set [9] is Cavia porcellus. The data set is described as follows: Tested for the inhibition of ovalbumin- induced bronchoconstriction in Guinea pig, injected intraduodenally, dose of 25 mg/kg. The note with it: route intraduodenal. The class given is functional.
The subject of data set [10] is Cavia porcellus. The data set is described as follows: Inhibition of LTD4-induced broncho constriction in Guinea pig after intragastrical administration of a dose of 3 mg/kg. It counts as functional. The settings on record: po, route intragastric.
Data set [11] relates to Cavia porcellus. The data set is described as follows: Inhibition of LTD4-induced broncho constriction in Guinea pig after intragastrical administration of a dose of 25 mg/kg. It counts as functional. The settings on record: po, route intragastric.
Data set [12] relates to Cavia porcellus. The data set is described as follows: Tested for the inhibition of LTD4-induced broncho constriction in Guinea pig, injected intraduodenally at a dose of 25 mg/kg. The note with it: route intraduodenal. It counts as functional.
Data set [13] has as its system Cavia porcellus. The data set is described as follows: Tested for the inhibition of LTD4-induced broncho constriction in Guinea pig; injected intraduodenally at a dose of 25 mg/kg. It counts as functional. The note with it: route intraduodenal.
Data set [14] relates to Cavia porcellus. The data set is described as follows: -log dissociation constant was determined In vitro in isolated guinea pig trachea after intraduodenal administration (before 10 min). It counts as ADME, organism-based. The settings on record: in vivo, other.
The test system of data set [15] is Cavia porcellus. The data set is described as follows: In vitro LTD4-induced bronchoconstriction in isolated guinea pig trachea by injecting intraduodenally. It counts as functional. The settings on record: intraduodenal.
Data set [16] has as its system Cavia porcellus. The data set is described as follows: In vitro inhibition of LTD4-induced bronchoconstriction after intragastrical administration 120 min before agonist into isolated guinea pig trachea. It counts as functional. The settings on record: po.
Data set [17] relates to Cavia porcellus. The data set is described as follows: In vitro inhibition of ovalbumin-induced bronchoconstriction in isolated guinea pig trachea by injecting intraduodenally. The class given is functional. The settings on record: intraduodenal.
Data set [18] concerns Cavia porcellus. The data set is described as follows: In vitro inhibition of ovalbumin-induced bronchoconstriction after intragastrical administration 120 min before agonist into isolated guinea pig trachea. It counts as functional. The settings on record: po.

As for `CONC(=O)c1cccc(OCc2ccc3ccccc3n2)c1`, the inhibition in vivo at 10 mg/kg came out at 9% in the data set on Cavia porcellus [1] and 84% in the data set on Cavia porcellus [5]. Also, the inhibition in vivo at 3 mg/kg in the data set with Cavia porcellus [2] is 64%; in the data set with Cavia porcellus [8] it was -6%. Moreover, the inhibition in vivo at 25 mg/kg in the data set with Cavia porcellus [3] was below 72%; with Cavia porcellus [4], 93%; in the data set on Cavia porcellus [6], below 77%; with Cavia porcellus [7] it was below -2%.
Regarding `CS(=O)(=O)NC(=O)c1cccc(OCc2ccc3ccccc3n2)c1`, the results for the inhibition in vivo at 25 mg/kg in the data set with Cavia porcellus [9], in the data set with Cavia porcellus [11] and in the data set with Cavia porcellus [12] were below 13%, below 66% and 90%, respectively. Also, the inhibition in vivo at 3 mg/kg with Cavia porcellus [10] is 20%.
For `Cc1ccc(S(=O)(=O)NC(=O)c2ccc(OCc3ccc4ccccc4n3)cc2)cc1`, the inhibition in vivo at 25 mg/kg in the data set with Cavia porcellus [13] is below -9%.
Take `CCCc1c(OCCCCc2nnn[nH]2)ccc(C(C)=O)c1O` [TOMELUKAST]: the pKb in the data set with Cavia porcellus [14] was 6.55. Further, the ED50 in the data set with Cavia porcellus [15] came out at 6 mg/kg; in the data set on Cavia porcellus [16], 32 mg/kg; with Cavia porcellus [17] it was 19 mg/kg; with Cavia porcellus [18] it was 38 mg/kg.
